Assay results as given in patent US20260232767A1, “INTERLEUKIN-23 RECEPTOR ANTAGONIST PEPTIDES FOR USE IN THE TREATMENT OF PSORIASIS” (Janssen Pharmaceutica NV, priority 2023, published 2026).

Tested on: subjects with moderate-to-severe plaque psoriasis
Assay: PASI response, Example 2 long-term extension to Week 52
Type: in vivo, human
Settings: for Change from Baseline in PASI Total Score, LSMean: MMRM model
Excerpt: Described below is a multicenter, long-term extension (LTE), double-blind, dose-ranging, parallel group interventional study in participants from Example 1 to evaluate the long-term efficacy and safety of the hydrochloride salt of the compound of Formula (I) for the treatment of moderate-to-severe plaque psoriasis. Patients from Example 1 continued to receive the same dose of the compound of Formula (I) for an additional 36-week treatment period with a 4-week safety follow up period after the last administration of the compound of Formula (I). Patients randomized to placebo in Example 1 received the compound of Formula (I) at a dose of 100 mg QD starting at Week 16 of Example 1 (FIG. 21).
The primary efficacy endpoint is the proportion of participants achieving a PASI 75 response at Week 52, defined as at least a […] reduction from baseline PASI of Example 1. For primary analysis, composite strategy (non-responder imputation) was applied to address intercurrent event #1 (Discontinuation of study intervention due to lack of efficacy or due to an AE of worsening of psoriasis) and […] (initiation of a protocol-prohibited medication or therapy that could improve psoriasis); treatment policy strategy (observed data) was applied to intercurrent event #3 (Discontinuation of study intervention due to other reasons). Participants with missing data after application of ICEs are considered as non-responders.
Since there was no control arm (after week 16), in this primary analysis, only the proportion of participants who achieved a PASI75 response and its […] confidence interval at Week 52 were summarized for each intervention group.

[1] = 50 mg QD, Week 52, non-responder imputation

With `CC(=O)NCCCC[C@@H]1NC(=O)[C@H](Cc2c[nH]c3c(C)cccc23)NC(=O)[C@H]([C@@H](C)O)NC(=O)[C@H](CC(N)=O)NC(=O)[C@@H](NC(C)=O)C(C)(C)SSC(C)(C)[C@@H](C(=O)N[C@@H](Cc2ccc(OCCN)cc2)C(=O)N[C@@H](Cc2ccc3ccccc3c2)C(=O)NC2(C(=O)N[C@@H](CCC(=O)O)C(=O)N[C@@H](CC(N)=O)C(=O)N[C@@H](Cc3cccnc3)C(=O)N(C)CC(N)=O)CCOCC2)NC1=O` [IL-23 receptor antagonist peptide, Ac-[Pen]*-N-T-[W(7-Me)]-[Lys(Ac)]-[Pen]*-Phe[4-(2-aminoethoxy)]-[2-Nal]-[THP]-E-N-[3-Pal]-Sarc-NH2 (*[Pen]-[Pen]* formdisulfidebond)] the “Change from Baseline in PASI Total Score, Median” value (“Change from Baseline … Median” for short) (50 mg QD, Week 16) was −14.90, the “Change from Baseline in PASI Total Score, LSMean” value (“Change from Baseline … LSMean” below) (50 mg QD, Week 16) was −14.4 and the “Change from Baseline in PASI Total Score, Mean” value (50 mg QD, Week 20) was −14.92. The “Change from Baseline … Median” value (50 mg QD, Week 20) was −15.10, the “Change from Baseline … LSMean” value (50 mg QD, Week 20) was −14.7 and the “Change from Baseline in PASI Total Score, Mean” value (50 mg QD, Week 24) was −15.10. For the same compound, the “Change from Baseline … Median” value (50 mg QD, Week 24) was −15.70, the “Change from Baseline … LSMean” value (50 mg QD, Week 24) was −14.9 and the “Change from Baseline in PASI Total Score, Mean” value (50 mg QD, Week 28) was −14.75. For the same compound, the “Change from Baseline … Median” value (50 mg QD, Week 28) was −15.50, the “Change from Baseline … LSMean” value (50 mg QD, Week 28) was −14.6 and the “Change from Baseline in PASI Total Score, Mean” value (50 mg QD, Week 32) was −14.88. For the same compound, the “Change from Baseline … Median” value (50 mg QD, Week 32) was −15.80, the “Change from Baseline … LSMean” value (50 mg QD, Week 32) was −14.6 and the “Change from Baseline in PASI Total Score, Mean” value (50 mg QD, Week 40) was −14.33. The “Change from Baseline … Median” value (50 mg QD, Week 40) was −15.45, the “Change from Baseline … LSMean” value (50 mg QD, Week 40) was −14.2 and the “Change from Baseline in PASI Total Score, Mean” value (50 mg QD, Week 52) was −14.45. For the same compound, the “Change from Baseline … Median” value (50 mg QD, Week 52) was −15.80, the “Subjects achieving PASI 75” value (50 mg QD, Week 52) was 30 (69.8%) and the “Change from Baseline … LSMean” value (50 mg QD, Week 52) was −14.3. The “Subjects achieving 100% Improvement at Week 52 (PASI)” value [1] was “(20.9%)”, the “Subjects achieving ≥75% Improvement at Week 52 (PASI 75 Response)” value [1] was 30 (69.8%) and the “Subjects achieving ≥90% Improvement at Week 52 (PASI)” value [1] was “(41.9%)”. For the same compound, the “Change from Baseline in PASI Total Score, Mean” value (100 mg BID, Week 1) was −3.25, the “Change from Baseline … Median” value (100 mg BID, Week 1) was −1.20 and the “Change from Baseline … LSMean” value (100 mg BID, Week 1) was −2.9. The “Change from Baseline in PASI Total Score, Mean” value (100 mg BID, Week 2) was 6.07, the “Change from Baseline … Median” value (100 mg BID, Week 2) was −4.85 and the “Change from Baseline … LSMean” value (100 mg BID, Week 2) was −5.7. The “Change from Baseline in PASI Total Score, Mean” value (100 mg BID, Week 4) was −10.71, the “Change from Baseline … Median” value (100 mg BID, Week 4) was −9.70 and the “Change from Baseline … LSMean” value (100 mg BID, Week 4) was −10.0. For the same compound, the “Change from Baseline in PASI Total Score, Mean” value (100 mg BID, Week 8) was −14.66, the “Change from Baseline … Median” value (100 mg BID, Week 8) was −13.30 and the “Change from Baseline … LSMean” value (100 mg BID, Week 8) was −13.8. For the same compound, the “Change from Baseline in PASI Total Score, Mean” value (100 mg BID, Week 12) was −16.77, the “Change from Baseline … Median” value (100 mg BID, Week 12) was −17.05 and the “Change from Baseline … LSMean” value (100 mg BID, Week 12) was −15.9. For the same compound, the “Change from Baseline in PASI Total Score, Mean” value (100 mg BID, Week 16) was −17.44, the “Change from Baseline … Median” value (100 mg BID, Week 16) was −17.40 and the “Change from Baseline … LSMean” value (100 mg BID, Week 16) was −16.5. The “Change from Baseline in PASI Total Score, Mean” value (100 mg BID, Week 20) was −17.83, the “Change from Baseline … Median” value (100 mg BID, Week 20) was −17.40 and the “Change from Baseline … LSMean” value (100 mg BID, Week 20) was −17.0. For the same compound, the “Change from Baseline in PASI Total Score, Mean” value (100 mg BID, Week 24) was −17.99, the “Change from Baseline … Median” value (100 mg BID, Week 24) was −17.80 and the “Change from Baseline … LSMean” value (100 mg BID, Week 24) was −17.1. For the same compound, the “Change from Baseline in PASI Total Score, Mean” value (100 mg BID, Week 28) was −17.96, the “Change from Baseline … Median” value (100 mg BID, Week 28) was −17.75 and the “Change from Baseline … LSMean” value (100 mg BID, Week 28) was −17.2. The “Change from Baseline in PASI Total Score, Mean” value (100 mg BID, Week 32) was −18.37, the “Change from Baseline … Median” value (100 mg BID, Week 32) was −18.20 and the “Change from Baseline … LSMean” value (100 mg BID, Week 32) was −17.3. The “Change from Baseline in PASI Total Score, Mean” value (100 mg BID, Week 40) was −18.30, the “Change from Baseline … Median” value (100 mg BID, Week 40) was −18.30 and the “Change from Baseline … LSMean” value (100 mg BID, Week 40) was −17.4. The “Change from Baseline in PASI Total Score, Mean” value (100 mg BID, Week 52) was −18.46, the “Change from Baseline … Median” value (100 mg BID, Week 52) was −18.60 and the “Subjects achieving PASI 75” value (100 mg BID, Week 52) was 32 (76.2%). For the same compound, the “Change from Baseline … LSMean” value (100 mg BID, Week 52) was −17.4, the “Subjects achieving ≥75% Improvement at Week 52 (PASI 75 Response)” value (100 mg BID, Week 52, non-responder imputation) was 32 (76.2%) and the “Change from Baseline in PASI Total Score, Mean” value (100 mg QD, Week 1) was −2.60. The “Change from Baseline … Median” value (100 mg QD, Week 1) was −1.10, the “Change from Baseline … LSMean” value (100 mg QD, Week 1) was −2.8 and the “Change from Baseline in PASI Total Score, Mean” value (100 mg QD, Week 2) was −5.13. The “Change from Baseline … Median” value (100 mg QD, Week 2) was −3.25, the “Change from Baseline … LSMean” value (100 mg QD, Week 2) was −5.3 and the “Change from Baseline in PASI Total Score, Mean” value (100 mg QD, Week 4) was −8.39. For the same compound, the “Change from Baseline … Median” value (100 mg QD, Week 4) was −7.30, the “Change from Baseline … LSMean” value (100 mg QD, Week 4) was −8.7 and the “Change from Baseline in PASI Total Score, Mean” value (100 mg QD, Week 8) was −12.04. For the same compound, the “Change from Baseline … Median” value (100 mg QD, Week 8) was −11.30, the “Change from Baseline … LSMean” value (100 mg QD, Week 8) was −12.5 and the “Change from Baseline in PASI Total Score, Mean” value (100 mg QD, Week 12) was −13.70. The “Change from Baseline … Median” value (100 mg QD, Week 12) was −13.60, the “Change from Baseline … LSMean” value (100 mg QD, Week 12) was −14.0 and the “Change from Baseline in PASI Total Score, Mean” value (100 mg QD, Week 16) was −13.99. The “Change from Baseline … Median” value (100 mg QD, Week 16) was −14.75, the “Change from Baseline … LSMean” value (100 mg QD, Week 16) was −14.4 and the “Change from Baseline in PASI Total Score, Mean” value (100 mg QD, Week 20) was −14.57. The “Change from Baseline … Median” value (100 mg QD, Week 20) was −14.10, the “Change from Baseline … LSMean” value (100 mg QD, Week 20) was −15.1 and the “Change from Baseline in PASI Total Score, Mean” value (100 mg QD, Week 24) was −15.27. The “Change from Baseline … Median” value (100 mg QD, Week 24) was −14.90, the “Change from Baseline … LSMean” value (100 mg QD, Week 24) was −15.6 and the “Change from Baseline in PASI Total Score, Mean” value (100 mg QD, Week 28) was −16.11. The “Change from Baseline … Median” value (100 mg QD, Week 28) was −15.00, the “Change from Baseline … LSMean” value (100 mg QD, Week 28) was −15.8 and the “Change from Baseline in PASI Total Score, Mean” value (100 mg QD, Week 32) was −16.21. For the same compound, the “Change from Baseline … Median” value (100 mg QD, Week 32) was −15.10, the “Change from Baseline … LSMean” value (100 mg QD, Week 32) was −16.2 and the “Change from Baseline in PASI Total Score, Mean” value (100 mg QD, Week 40) was −15.95. For the same compound, the “Change from Baseline … Median” value (100 mg QD, Week 40) was −15.00, the “Change from Baseline … LSMean” value (100 mg QD, Week 40) was −15.7 and the “Change from Baseline in PASI Total Score, Mean” value (100 mg QD, Week 52) was −15.81. For the same compound, the “Change from Baseline … Median” value (100 mg QD, Week 52) was −15.00.
